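1) Cells in 96-well plates. 2) Compound, 48 h, 5 concentrations. 3) Linear interpolation between surrounding doses. 4) Unreached endpoint = highest concentration. GI50 is the concentration that inhibits growth by half. TGI denotes the concentration required for complete inhibition of growth.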
Assays:
Experiment in all cases: NCI tumour cell line growth inhibition, 48 h
NCI-H522 lung = tested on: NCI-H522 lung
SNB-19 CNS = tested on: SNB-19 CNS
HL-60(TB) leukemia = tested on: HL-60(TB) leukemia
UO-31 renal = tested on: UO-31 renal
MDA-MB-231 breast = tested on: MDA-MB-231 breast
IGROV1 ovarian = tested on: IGROV1 ovarian
OVCAR-8 ovarian = tested on: OVCAR-8 ovarian
HCT-116 colon = tested on: HCT-116 colon
PC-3 prostate = tested on: PC-3 prostate
UACC-62 melanoma = tested on: UACC-62 melanoma

Structure (SMILES)	GI50 (NCI-H522 lung) [µM]	TGI (NCI-H522 lung) [µM]	GI50 (SNB-19 CNS) [µM]	TGI (SNB-19 CNS) [µM]	GI50 (HL-60(TB) leukemia) [µM]	TGI (HL-60(TB) leukemia) [µM]	GI50 (UO-31 renal) [nM]	TGI (UO-31 renal) [µM]	GI50 (MDA-MB-231 breast) [nM]	TGI (MDA-MB-231 breast) [µM]	GI50 (IGROV1 ovarian) [µM]	TGI (IGROV1 ovarian) [µM]	GI50 (OVCAR-8 ovarian) [µM]	TGI (OVCAR-8 ovarian) [µM]	GI50 (HCT-116 colon) [µM]	TGI (HCT-116 colon) [µM]	GI50 (PC-3 prostate) [µM]	TGI (PC-3 prostate) [µM]	GI50 (UACC-62 melanoma) [µM]	TGI (UACC-62 melanoma) [µM]
COC(=O)c1c2c(c(C)[n+]([O-])c1C)C(=O)C=C(NCc1ccc(F)cc1)C2=O	0.792	3.2	1.38	2.83	0.454	1.92	1240	2.53	354	4.46	0.363	1.61	0.37	1.93	0.319	1.18	0.317	3.68	0.175	1.16
COC(=O)c1ccc2c(c1)C(=O)c1c-2n(CCCN=[N+]=[N-])c(=O)c2cc(OC)c(OC)cc12	> 100	> 100	> 100	> 100	91.9	> 100	> 100000	> 100	> 100000	> 100	> 100	> 100	> 100	> 100	> 100	> 100	> 100	> 100	> 100	> 100
O=C(NC[C@H](O)CN1CCc2ccccc2C1)c1cc(NC2COC2)ncn1	23	68.3	11.9	98	20.3	60.5	11800	97.1	16100	46.9	15.7	39.9	20.8	> 100	22.7	> 100	5.92	96.3	21.3	> 100
C[C@@H]1C[C@@H]([C@@H](CC2CC(=O)NC(=O)C2)OC(=O)CC(=O)c2ccccc2)C(=O)[C@@H](C)C1	0.191	4.32	0.774	> 100	0.402	> 100	159	5.1	2940	90.5	0.62	–	0.405	> 68.8	0.489	> 45.2	0.444	> 100	0.915	> 100
Cc1nnc(Nc2ccc(NC(=O)Nc3ccc(Cl)cc3)cc2)c2ccccc12	1.84	3.88	2.77	8.72	2.03	4.19	2140	6.01	2380	5.94	3.98	19.5	3.35	9.32	1.86	3.59	3.49	11.9	1.75	3.59
COc1cc(C(=O)N2CCN(C(=O)c3cc(OC)c(OC)c(OC)c3)C2=S)cc(OC)c1OC	3.67	16.3	18.5	38.1	16	34.3	–	12.8	16700	36	24.7	56.6	21.9	45.9	18.2	33.1	15	32.2	14.9	29.9
CC(=O)Nc1ccc(-c2csc(Nc3cccc(-c4csc(C)n4)c3)n2)cc1	7.72	> 28	1.6	> 50	0.609	–	6730	22.8	1280	5.07	3.79	> 30.9	2.44	20.8	0.697	> 26.7	1.67	> 19.9	0.139	1.51
O=C(Cc1ccc(F)c(Cl)c1)Nc1cc(C2(C(F)(F)F)CC2)nn1CC1CCCCC1	2.93	9.67	4.78	> 15	3.27	7.79	2900	9.65	2820	6.68	4.64	> 15	4.96	> 15	3.88	> 15	4.68	> 15	3.37	11.5
O=C(c1ccco1)c1c(C(F)(F)F)nc2ccc(Cl)cc2[n+]1[O-]	83.1	> 100	> 100	> 100	25.2	85.1	> 100000	> 100	> 100000	> 100	> 100	> 100	> 100	> 100	> 100	> 100	> 100	> 100	> 100	> 100
N#Cc1nn(-c2cc(=O)[nH]c3ccc(Cl)cc23)c(N)c1C#N	> 100	> 100	> 100	> 100	> 100	> 100	> 100000	> 100	89800	> 100	> 100	> 100	> 100	> 100	> 100	> 100	> 100	> 100	> 100	> 100
